Test results as given in paper PMC11048566, “The Development of a Regulator of Human Serine Racemase for N-Methyl-D-aspartate Function” (Biomedicines, 2024).
Like-named read-outs stand apart in the source and are kept apart here.

Legend:
[1] = target: T1, human serine racemase (hSR) (Homo sapiens, UniProt Q9GZT4); assay: Two-step enzymatic assay of hSR racemization (hSR, then DAAO/HRP/Amplex Red); type: biochemical; conditions: 0.25 mM ATP
T1 construct: 6xHis (C); made in house; host or cells: E. coli BL21 (pET42b-hSR)
T1 sequence (Q9GZT4 1-340): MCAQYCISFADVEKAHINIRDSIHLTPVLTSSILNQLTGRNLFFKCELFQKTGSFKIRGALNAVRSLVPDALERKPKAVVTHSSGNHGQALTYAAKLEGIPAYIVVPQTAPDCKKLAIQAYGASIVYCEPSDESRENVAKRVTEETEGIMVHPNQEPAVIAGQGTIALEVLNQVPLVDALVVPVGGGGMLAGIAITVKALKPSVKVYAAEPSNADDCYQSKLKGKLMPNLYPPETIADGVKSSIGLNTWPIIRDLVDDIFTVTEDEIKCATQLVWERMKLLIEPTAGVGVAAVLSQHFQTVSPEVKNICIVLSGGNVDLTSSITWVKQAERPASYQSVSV
Method: This assay was designed by the formation of D-serine by hSR and the oxidation of D-serine by D-amino acid oxidase (DAAO) and horseradish peroxidase (HRP) with the peroxidase substrate Amplex Red^TM (10-acetyl-3,7-dihydroxyphenoxazine) (Thermo Fisher Scientific, Lagoas Park, Porto Salvo, Portugal). The hSR activity assay reaction was carried out in 100 mM HEPES buffer, pH 8.0, containing 2.4 µg of hSR protein, 50 µM PLP, 1 mM MgCl2, 0.25 mM ATP, 400 mM L-serine, and 2 times serially diluted α12G (8 mM to 0.2 µM). Compound-free wells were used as blank controls in the assay. All reactions were performed in duplicates. The reaction mixtures were incubated at 37 °C for 4 h. The reaction was stopped by heating the reaction mixtures at 95 °C for 10 min and storage at 4 °C. A reaction mixture for the second-step enzymatic assay, DAAO assay, with a final volume of 100 µL was made with a 10 µL sample from hSR assay, 45 µM FAD, 10 units of HRP, 60 ng DAAO, 10 mM lead acetate, 10 mM Amplex Red^TM, and 100 mM Tris HCl (pH = 8.5). Lead acetate was used to conjugate α12G as the latter would inhibit the DAAO function in the fluorometric assay, leading to an […] of the effects of α12G on hSR. The fluorescence was detected by the TECAN Infinite 200 Microplate Reader (GMI, MN, USA). The racemization percentage was calculated as follows: racemization % = (Fsample, 20 min − Fsample, 0 min)/(Fblank, 20 min − Fblank, 0 min) × 100%. […] The two-step enzymatic assay described in Section 2.3 was designed by the formation of D-serine by hSR and the consequent oxidation of D-serine by DAAO. The inhibition of DAAO, which also degrades D-serine, by α12G will lead to overestimating the effects of racemization by hSR. […] Therefore, lead acetate was applied to conjugate α12G for the determination of racemization. […] On the contrary, when the concentration of α12G is higher than 2 mM, the racemization activity of hSR is inhibited.

[2] = test system: MK-801-induced hyperactivity; assay: Open field test in MK-801-treated mice; type: in vivo, C57BL/6J male mice; conditions: oral gavage 20 min before 0.2 mg/kg MK-801 IP; p < 0.001, n = 8
Method: For behavioral studies, α12G was dissolved in 35% PEG-400 and administrated by oral gavage 20 min prior to the MK-801 insult. MK-801 (Sigma-Aldrich, St. Louis, MO, USA) was administrated via intraperitoneal (IP) injection 20 min prior to the behavioral tests, with the dosage of 0.2 mg/kg for the open field test and novel object recognition test and 0.3 mg/kg for the prepulse inhibition test.
C57BL/6J male mice were randomly assigned into six groups, 7–12 mice per group, (1) saline control, (2) MK-801, (3) 1 mg/kg α12G + MK-801, (4) 3 mg/kg α12G + MK-801, (5) 10 mg/kg α12G + MK-801, and (6) 30 mg/kg α12G + MK-801. The mice were placed in a Plexiglas cage (37.5 × 21.5 × 18 cm), and their spontaneous locomotor activities were measured for 60 min using a Photobeam Activity System (PAS) open field (San Diego Instruments, San Diego, CA, USA). The total photo beam breaks of each mouse were measured as an index of locomotor activity.

- Concentration above which hSR racemization activity is inhibited [1]: higher than 2 mM
- EC100 (concentration of highest racemization activity) ([1]; 400 mM L-serine, lead acetate in second step): 31.25 µM
- Enhancement of hSR racemization ([1]; maximum vs compound-free): about 8 fold
- EC50 ([1]; falling limb of inverted U-shape curve, read-out: EC50 on hSR racemization (progressively inhibiting racemization)): 221 µM
- EC50 ([1]; rising limb of inverted U-shape curve, read-out: EC50 on hSR racemization (favoring racemization)): 8.82 µM
Compound: O=C(Oc1cc(C(=O)Oc2cc(C(=O)O[C@H]3OC[C@@H](OC(=O)c4cc(O)c(O)c(OC(=O)c5cc(O)c(O)c(OC(=O)c6cc(O)c(O)c(O)c6)c5)c4)[C@H](OC(=O)c4cc(O)c(O)c(OC(=O)c5cc(O)c(O)c(OC(=O)c6cc(O)c(O)c(O)c6)c5)c4)[C@H]3OC(=O)c3cc(O)c(O)c(OC(=O)c4cc(O)c(O)c(OC(=O)c5cc(O)c(O)c(O)c5)c4)c3)cc(O)c2O)cc(O)c1O)c1cc(O)c(O)c(O)c1 [α12G, (2R,3R,4S,5R)-tetrahydro-2H-pyran-2,3,4,5-tetrayl tetrakis(3-((3,4-dihydroxy-5-((3,4,5-trihydroxybenzoyl)oxy)benzoyl)ox)-4,5-dihydroxybenzoate)]
- Effect on MK-801-induced hyperactivity (locomotor activity) [2]: alleviated the MK-801-induced hyperactivity
